The text below walks through data of US8715697B2, “Genes associated with Leishmania parasite virulence” (priority 2001, dated 2014).

For assay [1], the system named is L. major parasites in the exponential growth phase. The assay can be described thus: Inhibition of parasite (L. major) growth in a liquid medium by PDI inhibitors. The settings on record: for growth of Leishmania in a liquid medium (summary statement): no concentration stated, refers to Example 4; for concentration that completely inhibited the growth of L. major in a liquid medium: counted every 24 h over 96 h, FIG. 9 and FIG. 11. The format is cell-based, Leishmania major. The procedure: They are growth curves taken over 96 hours, for promastigotes of L major in the presence of 0, 1 mM, 1.5 mM or 2 mM of bacitracin.
Different concentrations of inhibitors (0 to 5 mM) were used to follow the effect of PDI inhibitors on the multiplication of parasites in vitro. Parasites that had not been treated with inhibitors (T) were selected as a control for these experiments.
With the aim of determining the effect of bacitracin (BAC), zinc bacitracin (BACZn), p-chloromercuribenzoic acid (PCMBA) and 5,5′-dithiobis(2-nitrobenzoic acid) (DTNB) on the in vitro growth of Leishmanias in a liquid medium, different concentrations of the inhibitors cited above, 0 mM, 0.05 mM, 0.1 mM, 0.2 mM, 0.5 mM, 1 mM, 1.5 mM, 2 mM, 2.5 mM and 5 mM were added to RPMI supplemented with 5% fetal calf serum and containing 2×10^6/ml of parasites in the exponential growth phase. The parasites were incubated at 26° C. and counted every 24 hours over 96 hours. The parasites were counted on Mallassez cells.
The PDI inhibitors described in paragraph (1—) were tested with the aim of evaluating their capacities to inhibit the in vitro growth of parasites. To this end, different quantities of inhibitors were added to RPMI containing 2×10^6/ml of parasites in the exponential growth phase. The parasites were incubated at 26° C. and counted every 24 hours over 96 hours. The parasites were counted on Mallassez cells.

In assay [2] the test system is L. major GLC94 isolate promastigotes. The following applies: treatments used in man; general statement; cited from earlier work.
A further assay relates to recombinant LmPDI. The assay can be described thus: Inhibition of reactivation of scrambled RNase A by recombinant LmPDI (thio-disulfide oxido-reductase activity). It is filed as biochemical, Leishmania major. The following applies: for inhibition of rLmPDI activity: FIG. 12; for concentration at which LmPDI activity is completely inhibited: inhibitors tested at 0.01, 0.1, 0.5 and 2 mM. The procedure:
Scrambled RNase A (8 μM) was incubated in a buffer containing 4.5 mM cCMP, 1 mM glutathione GSH, 0.2 mM glutathione disulfide GSSH, 2 mM EDTA and 100 mM of Tris-HCl pH 8 in the presence of bovine serum albumin (BSA) (1.4 μM) as a negative control, bovine protein disulfide-isomerase (1.4 μM) as a positive control, or recombinant LmPDI (1.4 μM) for 30 minutes at 25° C. RNase A reactivation was determined by measuring the RNase A activity at 296 nm every 5 minutes, as described in the literature (Lyles and Gilbert, 1991).
The scrambled RNase A (8 μM) was incubated in a buffer containing 4.5 mM cCMP, 1 mM glutathione GSH, 0.2 mM glutathione disulfide GSSH, 2 mM EDTA and 100 mM Tris-HCl, pH 8, in the presence of bovine serum albumin (BSA) (1.4 μM) as a negative control, bovine protein disulfide-isomerase (1.4 μM) as a positive control, or recombinant LmPDI (1.4 μM) for 30 minutes at 25° C. RNase A reactivation was determined by measuring the RNase A activity at 296 nm every 5 minutes for 30 minutes as described in the literature (Lyles and Gilbert, 1991).
The experimental conditions for the thio-disulfide oxido-reductase activity inhibition tests for recombinant LmPDI were strictly identical to those described in the paragraph “Reactivation of RNase A in the presence of recombinant LmPDI protein”, except that the reactions were carried out in the presence of 0.01 mM, 0.1 mM, 0.5 mM and 2 mM of the following PDI inhibitors: • bacitracin; • zinc bacitracin; • p-chloromercuribenzoic acid (pCMBA); • tocinoic acid. d) Inhibition of Parasite (L. Major) Growth in a Liquid Medium
1—Evaluation of the inhibition of recombinant LmPDI. The detailed technique for analyzing the PDI activity of LmPDI was described in Example 2 and in the Materials and Methods section above. The same technique can be used to evaluate the capacity of certain PDI inhibitors which are known or still to be identified (using a molecular model of LmPDI), by adding different concentrations of potential inhibitors to the reaction volume. The results are expressed as the percentage inhibition compared with the buffer alone. Only molecules with a significant and dose-dependent LmPDI inhibiting activity are retained.
With the aim of determining whether the different PDI inhibitors described in the literature could inhibit the thio-disulfide oxido-reductase activity of LmPDI, the capacity of these inhibitors to block the enzymatic activity of LmPDI synthesized in E. coli then purified was studied in an in vitro test, at different-concentrations. The inhibitors were: • bacitracin; • zinc bacitracin; • p-chloromercuribenzoic acid (pCMBA); • tocinoic acid.
Twenty milligrams of RNase A (Amersham.-Pharmacia) was denatured in a buffer composed of 0.15 M dithiothreitol, 6M guanidine HCl and 0.1 M Tris-HCl, pH 8.6 for 18 hours at ambient temperature. The scrambled RNase was then purified on a Sephadex G25 column equilibrated in HCl 0.01 M and quantified by spectrophotometry at 275 nm.
In a glutathione-based reducing buffer, PDI catalyzes renaturing of scrambled RNase (Gilbert, 1998). Restoration of RNase activity was measured by spectrophotometry in the presence of cytidine 2′-3′-cyclic monophosphate (cCMP) as a substrate. 8 μM of scrambled RNase, alone or in the presence of 1.4 μM of bovine serum albumin (BSA) or 1.4 μM of rLmPDI was mixed in a buffer containing 4.5 mM of cCMP, 1 mM of reduced glutathione (GSH), 200 μM of oxidized glutathione (GSSG), 2 mM EDTA and 100 mM Tris-Cl, pH 8. The reaction was carried out at ambient temperature for 30 minutes. The hydrolysis of cCMP resulting from the renaturing of RNase was recorded by measuring the absorbance at 296 nm every 5 minutes for the half hour of the reaction.
The activity of the recombinant LmPDI (rLmPDI) was measured in the presence of different concentrations of bacitracin (BAC 0.01 mM-2 mM) and zinc bacitracin (BACZn, 0.01 mM-2 mM).

In assay [3] the test system is L. major GLC94 isolate promastigotes. In words: Evolution of the disease in BALB/c mice infected with L. major GLC94 promastigotes, lesion size. It is filed as in vivo. From the text:
Sensitive BALB/c mice were infected with 10^6 promastigotes from the GLC94 isolate into the plantar pad and treated or not treated with bacitracin. The treatment was halted 9 weeks after infection (the arrow indicates treatment stoppage).
The availability of zinc bacitracin, which already forms a weapon in the therapeutic arsenal, has allowed it to be tested on the evolution of infection in the BALB/c mouse with L. major. Mice were infected with promastigotes in the stationary growth phase (10^6 promastigotes per paw) of the GLC94 isolate into the plantar pad of the rear paw and treated with a pomade based on 5 mM or 25 mM of BACZn (prepared in Vaseline). Treatment with the pomade was started 48 hours after injecting the parasites, by dint of one application per day over 5 days of the week. Mice infected in the same manner and treated with Vaseline were used as the control. The lesion size was measured each week.

The test system of the next assay is GLC94 promastigotes. In words: In vitro growth kinetics of L. major promastigotes in the presence of zinc bacitracin. The format is cell-based, Leishmania major. The settings on record: FIG. 13. The procedure:
FIG. 13 illustrates the inhibition of the multiplication of GLC94 promastigotes by zinc bacitracin. The effect of zinc bacitracin (BACZn) on the multiplication of GLC94 promastogotes was determined in vitro. Different concentrations of inhibitor were tested to analyze their effect on the capacity of the parasites to multiply in vitro. The control (C) was constituted by parasites cultivated in a complete medium in the absence of inhibitors.
To this end, promastigotes from the GLC94 isolate were cultured on a medium based on coagulated rabbit serum for two days. […] Promastigotes cultured in complete medium in the absence of inhibitors were used as the control. Monitoring was by counting the parasites at 48, 72 and 96 hours.

Where a SMILES comes first, the peptide text is derived from it. Bridges are numbered along the chain shown (N, C = ends). Where no end group is shown, it is not given here. [ ]: non-standard residue; d: D form. The star is where a group is joined. Ileψ(thiazoline)Cys = CC[C@H](C)[C@H](N)C1=N[C@H](C(=O)*)CS1; dOrn = NCCC[C@@H](N)C(=O)O

In the case of `O=C(O)c1cc(SSc2ccc([N+](=O)[O-])c(C(=O)O)c2)ccc1[N+](=O)[O-]` [DTNB, 5,5′-dithiobis(2-nitrobenzoic acid)], in assay [1] (in the concentrations used (0 to 5 mM), FIG. 11), the “effect on the growth of Leishmanias in a liquid medium” value is on record as “did not appear to have a very large effect”.

Turning to `CNC[C@H](O)[C@@H](O)[C@H](O)[C@H](O)CO.[O]=[Sb](=[O])[OH]` [glucantime], the “effect on the disease induced in the BALB/c mouse” value in assay [2] is given as “little effect”.

In the case of `CC[C@H](C)[C@H](N)C1=N[C@H](C(=O)N[C@@H](CC(C)C)C(=O)N[C@H](CCC(=O)O)C(=O)N[C@H](C(=O)N[C@H]2CCCCNC(=O)[C@H](CC(N)=O)NC(=O)[C@@H](CC(=O)O)NC(=O)[C@H](Cc3cnc[nH]3)NC(=O)[C@@H](Cc3ccccc3)NC(=O)[C@H]([C@@H](C)CC)NC(=O)[C@@H](CCCN)NC2=O)[C@@H](C)CC)CS1` [bacitracin] ({Ileψ(thiazoline)Cys}-L[dE]IK[dOrn]I[dF]H[dD]N; lactam 4-C), the “inhibition of rLmPDI activity” value with recombinant LmPDI (0.1 mM) stood at 50%; with recombinant LmPDI (0.5 mM), 70%; in the assay on recombinant LmPDI (2 mM) it was 100%. Also, the “concentration at which LmPDI activity is completely inhibited” value in the assay with recombinant LmPDI (FIG. 10) was found to be 2 mM. Further, in assay [1], the “growth of Leishmania in a liquid medium (summary statement)” value is “inhibits the growth”. Further, the “mice with lesion attenuation” value in assay [3] (pomade 5 mM) is recorded as 2 out of 3; in assay [3] (pomade 25 mM), 2 out of 4.

For zinc bacitracin, the “inhibition of rLmPDI activity” value in the assay on recombinant LmPDI (0.1 mM) was 50%; with recombinant LmPDI (0.5 mM), 70%; in the assay with recombinant LmPDI (2 mM), 100%. In addition, in the assay on recombinant LmPDI (FIG. 10), the “concentration at which LmPDI activity is completely inhibited” value is 2 mM. Moreover, in assay [1], the “concentration that completely inhibited the growth of L. major in a liquid medium” value amounted to 2 mM. Besides, the “progress of the disease (lesion size)” value in assay [3] (pomade in Vaseline applied locally at the injection site, from 48 h after infection, preliminary, FIG. 14) was “attenuates the progress of the disease”. Further, the growth of parasites result was “no effect” with GLC94 promastigotes (1 mM), “partially inhibits” in the assay with GLC94 promastigotes (1.5 mM), “complete inhibition” with GLC94 promastigotes (2 mM) and “complete inhibition” in the assay with GLC94 promastigotes (5 mM).

Regarding “tocinoic acid (CYIQNC; not fully specified (bridges); cysteine pairing not given here; UniProt P01178 20-25, looked up, fragment)”, the “effect on the activity of LmPDI” value with recombinant LmPDI (FIG. 10, at the concentrations employed (0.01 to 2 mM)) is “did not appear to have a very great effect”.

Regarding `NC[C@@H]1O[C@H](O[C@H]2[C@@H](O)[C@H](O[C@@H]3[C@@H](O)[C@H](N)C[C@H](N)[C@H]3O[C@H]3O[C@H](CO)[C@@H](O)[C@H](O)[C@H]3N)O[C@@H]2CO)[C@H](N)[C@@H](O)[C@@H]1O` [paramomycin], the “effect on the disease induced in the BALB/c mouse” value in assay [2] is given as “little effect”.

With `O=S(=O)(O)c1cc[c]([Hg][Cl])cc1` [pCMBS, p-chloromercuribenzene sulfonic acid], the “growth of Leishmania in a liquid medium (summary statement)” value in assay [1] is “inhibits the growth”.

Regarding `O=C(O)c1cc[c]([Hg][Cl])cc1` [pCMBA, p-chloromercuribenzoic acid], in the assay on recombinant LmPDI (FIG. 10), the “concentration at which LmPDI activity is completely inhibited” value is listed as 0.01 mM. In addition, the “concentration that completely inhibited the growth of L. major in a liquid medium” value in assay [1] turned out to be 0.5 mM.
